Several values for one entry are separate records, joined by “and”; a condition that tells them apart may be missing. Equal entries are not always repeated. Inconclusive results and toxic doses are left out. No stated cut-off is given here; in the data, active means T/C of 150% or more; inactive means T/C below 125%.
Tested on: L1210 leukemia ip in BDF1 mice, survival T/C
Test: NCI In Vivo Anticancer Drug Screen. Data for tumor model L1210 Leukemia (intraperitoneal) in B6D2F1 (BDF1) mice
Conditions: higher = longer survival
Outline: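 Value reflects the ratio of survival in compound-treated mice to survival in vehicle-treated controls, with both groups carrying the same transplanted tumor.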

[1] = endpoint: mean survival time, dose: 100.0 mg/kg/injection, schedule: Q01DX001 (ip), vehicle: saline with Tween-80
[2] = endpoint: mean survival time, dose: 200.0 mg/kg/injection, schedule: Q01DX001 (ip), vehicle: saline with Tween-80
[3] = endpoint: mean survival time, dose: 400.0 mg/kg/injection, schedule: Q01DX001 (ip), vehicle: saline with Tween-80

Measured: T/C

CN(C)c1nc(N(C)C)nc(N(C)C)n1
inactive: endpoint: mean survival time, dose: 2.5 mg/kg/injection, schedule: Q03HX040 (ip), vehicle: acetone 103 % of control | endpoint: mean survival time, dose: 4.8 mg/kg/injection, schedule: Q01DX Z (ip), vehicle: other 94 % of control | endpoint: mean survival time, dose: 5.0 mg/kg/injection, schedule: Q03HX040 (ip), vehicle: acetone 108 % of control | endpoint: mean survival time, dose: 5.0 mg/kg/injection, schedule: Q06HX020 (ip), vehicle: acetone 110 % of control | endpoint: mean survival time, dose: 5.5 mg/kg/injection, schedule: Q01DX009 (ip), vehicle: saline with Tween-80 104 % of control and 116 % of control | endpoint: mean survival time, dose: 8.5 mg/kg/injection, schedule: Q04DX002 (ip), vehicle: saline with Tween-80 93 % of control and 96 % of control | endpoint: mean survival time, dose: 9.4 mg/kg/injection, schedule: Q01DX009 (ip), vehicle: saline with Tween-80 92 % of control | endpoint: mean survival time, dose: 9.4 mg/kg/injection, schedule: Q01DX010 (ip), vehicle: saline 88 % of control and 92 % of control | endpoint: mean survival time, dose: 9.5 mg/kg/injection, schedule: Q01DX Z (ip), vehicle: other 100 % of control | endpoint: mean survival time, dose: 10.0 mg/kg/injection, schedule: Q03HX040 (ip), vehicle: acetone 106 % of control | endpoint: mean survival time, dose: 10.0 mg/kg/injection, schedule: Q06HX020 (ip), vehicle: acetone 110 % of control | endpoint: mean survival time, dose: 10.0 mg/kg/injection, schedule: Q12HX010 (ip), vehicle: acetone 100 % of control | endpoint: mean survival time, dose: 11.0 mg/kg/injection, schedule: Q01DX009 (ip), vehicle: saline with Tween-80 110 % of control and 118 % of control | endpoint: mean survival time, dose: 12.5 mg/kg/injection, schedule: Q01DX009 (ip), vehicle: saline with Tween-80 108 % of control | endpoint: mean survival time, dose: 17.0 mg/kg/injection, schedule: Q04DX002 (ip), vehicle: saline with Tween-80 100 % of control and 105 % of control | endpoint: mean survival time, dose: 18.8 mg/kg/injection, schedule: Q01DX009 (ip), vehicle: saline with Tween-80 103 % of control | endpoint: mean survival time, dose: 18.8 mg/kg/injection, schedule: Q01DX009 (ip), vehicle: saline 95 % of control and 92 % of control | endpoint: mean survival time, dose: 18.8 mg/kg/injection, schedule: Q01DX010 (ip), vehicle: saline 90 % of control and 91 % of control | endpoint: mean survival time, dose: 19.0 mg/kg/injection, schedule: Q01DX Z (ip), vehicle: other 101 % of control | endpoint: mean survival time, dose: 20.0 mg/kg/injection, schedule: Q01DX005 (ip), vehicle: acetone 101 % of control and 103 % of control | endpoint: mean survival time, dose: 20.0 mg/kg/injection, schedule: Q01DX009 (ip), vehicle: Klucel (hydroxypropylcellulose) (HPC) 99 % of control | endpoint: mean survival time, dose: 20.0 mg/kg/injection, schedule: Q01DX009 (ip), vehicle: saline with Tween-80 100 % of control | endpoint: mean survival time, dose: 20.0 mg/kg/injection, schedule: Q03HX040 (ip), vehicle: acetone 107 % of control | endpoint: mean survival time, dose: 20.0 mg/kg/injection, schedule: Q06HX020 (ip), vehicle: acetone 106 % of control | endpoint: mean survival time, dose: 20.0 mg/kg/injection, schedule: Q12HX010 (ip), vehicle: acetone 104 % of control | endpoint: mean survival time, dose: 25.0 mg/kg/injection, schedule: Q01DX009 (ip), vehicle: saline with Tween-80 98 % of control | endpoint: mean survival time, dose: 30.0 mg/kg/injection, schedule: Q03HX040 (ip), vehicle: saline 110 % of control | endpoint: mean survival time, dose: 34.0 mg/kg/injection, schedule: Q04DX002 (ip), vehicle: saline with Tween-80 100 % of control and 101 % of control | endpoint: mean survival time, dose: 37.5 mg/kg/injection, schedule: Q01DX009 (ip), vehicle: saline with Tween-80 98 % of control | endpoint: mean survival time, dose: 37.5 mg/kg/injection, schedule: Q01DX009 (ip), vehicle: saline 94 % of control and 95 % of control | endpoint: mean survival time, dose: 37.5 mg/kg/injection, schedule: Q01DX010 (ip), vehicle: saline 95 % of control and 91 % of control | endpoint: mean survival time, dose: 38.0 mg/kg/injection, schedule: Q01DX Z (ip), vehicle: other 96 % of control | endpoint: mean survival time, dose: 40.0 mg/kg/injection, schedule: Q01DX005 (ip), vehicle: acetone 100 % of control and 110 % of control | endpoint: mean survival time, dose: 40.0 mg/kg/injection, schedule: Q01DX009 (ip), vehicle: Klucel (hydroxypropylcellulose) (HPC) 101 % of control | endpoint: mean survival time, dose: 40.0 mg/kg/injection, schedule: Q01DX009 (ip), vehicle: saline with Tween-80 101 % of control | endpoint: mean survival time, dose: 40.0 mg/kg/injection, schedule: Q06HX020 (ip), vehicle: acetone 118 % of control | endpoint: mean survival time, dose: 40.0 mg/kg/injection, schedule: Q12HX010 (ip), vehicle: acetone 107 % of control | endpoint: mean survival time, dose: 50.0 mg/kg/injection, schedule: Q01DX001 (ip), vehicle: saline with Tween-80 97 % of control | endpoint: mean survival time, dose: 50.0 mg/kg/injection, schedule: Q01DX009 (ip), vehicle: saline with Tween-80 107 % of control | endpoint: mean survival time, dose: 50.0 mg/kg/injection, schedule: Q12HX010 (ip), vehicle: saline 96 % of control | endpoint: mean survival time, dose: 68.0 mg/kg/injection, schedule: Q04DX002 (ip), vehicle: saline with Tween-80 104 % of control and 105 % of control | endpoint: mean survival time, dose: 75.0 mg/kg/injection, schedule: Q01DX009 (ip), vehicle: saline with Tween-80 111 % of control | endpoint: mean survival time, dose: 75.0 mg/kg/injection, schedule: Q01DX009 (ip), vehicle: saline 94 % of control and 91 % of control | endpoint: mean survival time, dose: 75.0 mg/kg/injection, schedule: Q01DX010 (ip), vehicle: saline 98 % of control and 92 % of control | endpoint: mean survival time, dose: 80.0 mg/kg/injection, schedule: Q01DX005 (ip), vehicle: acetone 104 % of control and 106 % of control | endpoint: mean survival time, dose: 80.0 mg/kg/injection, schedule: Q01DX009 (ip), vehicle: Klucel (hydroxypropylcellulose) (HPC) 100 % of control | endpoint: mean survival time, dose: 80.0 mg/kg/injection, schedule: Q01DX009 (ip), vehicle: saline with Tween-80 105 % of control | endpoint: mean survival time, dose: 80.0 mg/kg/injection, schedule: Q12HX010 (ip), vehicle: acetone 115 % of control | endpoint: mean survival time, dose: 85.0 mg/kg/injection, schedule: Q01DX001 (ip), vehicle: other 94 % of control | [1] 98 % of control | endpoint: mean survival time, dose: 100.0 mg/kg/injection, schedule: Q01DX009 (ip), vehicle: saline with Tween-80 97 % of control | endpoint: mean survival time, dose: 100.0 mg/kg/injection, schedule: Q12HX010 (ip), vehicle: saline 98 % of control | endpoint: mean survival time, dose: 125.0 mg/kg/injection, schedule: Q01DX001 (ip), vehicle: other 109 % of control | endpoint: mean survival time, dose: 130.0 mg/kg/injection, schedule: Q01DX001 (ip), vehicle: other 101 % of control | endpoint: mean survival time, dose: 136.0 mg/kg/injection, schedule: Q04DX002 (ip), vehicle: saline with Tween-80 96 % of control and 98 % of control | endpoint: mean survival time, dose: 150.0 mg/kg/injection, schedule: Q01DX009 (ip), vehicle: saline with Tween-80 124 % of control | endpoint: mean survival time, dose: 150.0 mg/kg/injection, schedule: Q01DX009 (ip), vehicle: saline 93 % of control and 102 % of control | endpoint: mean survival time, dose: 160.0 mg/kg/injection, schedule: Q01DX009 (ip), vehicle: Klucel (hydroxypropylcellulose) (HPC) 107 % of control and 87 % of control | endpoint: mean survival time, dose: 160.0 mg/kg/injection, schedule: Q01DX009 (ip), vehicle: saline with Tween-80 109 % of control | endpoint: mean survival time, dose: 195.0 mg/kg/injection, schedule: Q01DX001 (ip), vehicle: other 94 % of control | [2] 101 % of control | endpoint: mean survival time, dose: 200.0 mg/kg/injection, schedule: Q01DX009 (ip), vehicle: saline with Tween-80 124 % of control | endpoint: mean survival time, dose: 240.0 mg/kg/injection, schedule: Q01DX009 (ip), vehicle: Klucel (hydroxypropylcellulose) (HPC) 86 % of control | endpoint: mean survival time, dose: 250.0 mg/kg/injection, schedule: Q01DX001 (ip), vehicle: other 100 % of control | endpoint: mean survival time, dose: 272.0 mg/kg/injection, schedule: Q04DX002 (ip), vehicle: saline with Tween-80 100 % of control and 105 % of control | [3] 98 % of control | endpoint: mean survival time, dose: 500.0 mg/kg/injection, schedule: Q01DX001 (ip), vehicle: other 112 % of control | endpoint: median survival time, dose: 18.8 mg/kg/injection, schedule: Q01DX009 (ip), vehicle: saline 100 % of control and 114 % of control | endpoint: median survival time, dose: 37.5 mg/kg/injection, schedule: Q01DX009 (ip), vehicle: saline 100 % of control and 114 % of control | endpoint: median survival time, dose: 75.0 mg/kg/injection, schedule: Q01DX009 (ip), vehicle: saline 100 % of control and 111 % of control | endpoint: median survival time, dose: 150.0 mg/kg/injection, schedule: Q01DX009 (ip), vehicle: saline 111 % of control and 121 % of control

COC(=O)C(Br)(C(=O)OC)C(c1ccccc1)c1ccccc1
inactive: endpoint: mean survival time, dose: 100.0 mg/kg/injection, schedule: Q04DX002 (ip), vehicle: other 90 % of control | endpoint: mean survival time, dose: 200.0 mg/kg/injection, schedule: Q04DX002 (ip), vehicle: other 86 % of control | endpoint: mean survival time, dose: 400.0 mg/kg/injection, schedule: Q04DX002 (ip), vehicle: other 93 % of control

CN(C)/N=C/c1ccccc1O
inactive: endpoint: mean survival time, dose: 100.0 mg/kg/injection, schedule: Q01DX009 (ip), vehicle: saline 96 % of control | endpoint: mean survival time, dose: 200.0 mg/kg/injection, schedule: Q01DX009 (ip), vehicle: saline 104 % of control | endpoint: mean survival time, dose: 400.0 mg/kg/injection, schedule: Q01DX009 (ip), vehicle: saline 96 % of control

CCNC(=O)OCCN1C(=O)C2C3CCC(O3)C2C1=O (stereo not drawn)
inactive: [1] 98 % of control | endpoint: mean survival time, dose: 100.0 mg/kg/injection, schedule: Q04DX003 (ip), vehicle: saline with Tween-80 100 % of control | [2] 103 % of control | endpoint: mean survival time, dose: 200.0 mg/kg/injection, schedule: Q04DX003 (ip), vehicle: saline with Tween-80 100 % of control | [3] 113 % of control | endpoint: mean survival time, dose: 400.0 mg/kg/injection, schedule: Q04DX003 (ip), vehicle: saline with Tween-80 97 % of control

— PubChem BioAssay AID248 (DTP/NCI, 2004)
